According to patent publication US12077503B2, “Substituted cyclic amides and their use as herbicides” (FMC CORPORATION, priority 2015, dated 2024):

Assays:
[1] = tested on: johnsongrass (Sorghum halepense); test: Test C preemergence; format: in vivo; details: for Plant response rating, Johnsongrass: scale 0 to 100, 0 no effect, 100 complete control
Method in brief: (§1)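 Preemergence application to seeds in loam/sand soil, or foliar (postemergence) application to plants 2–18 cm tall in peat moss/vermiculite medium; surfactant-containing non-phytotoxic solvent vehicle; greenhouse. Visual injury vs controls at 13–15 d; 0 = no effect, 100 = complete control.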

[2] = tested on: velvetleaf (Abutilon theophrasti); test: Test C preemergence; format: in vivo; details: for Plant response rating, Velvetleaf: scale 0 to 100, 0 no effect, 100 complete control
Method in brief: as §1

[3] = tested on: lambsquarters (Chenopodium album); test: Test C preemergence; format: in vivo; details: for Plant response rating, Lambsquarters: scale 0 to 100, 0 no effect, 100 complete control
Method in brief: as §1

corn (Zea mays) = test: Test C preemergence; format: in vivo; details: for Plant response rating, Corn: scale 0 to 100, 0 no effect, 100 complete control
Method in brief: as §1

[4] = tested on: blackgrass (Alopecurus myosuroides); test: Test C preemergence; format: in vivo; details: for Plant response rating, Blackgrass: scale 0 to 100, 0 no effect, 100 complete control
Method in brief: as §1

[5] = tested on: Galium (catchweed bedstraw, Galium aparine); test: Test C preemergence; format: in vivo; details: for Plant response rating, Galium: scale 0 to 100, 0 no effect, 100 complete control
Method in brief: as §1

[6] = tested on: ragweed (common ragweed, Ambrosia elatior); test: Test C preemergence; format: in vivo; details: for Plant response rating, Ragweed: scale 0 to 100, 0 no effect, 100 complete control
Method in brief: as §1

[7] = tested on: ryegrass, Italian (Italian ryegrass, Lolium multiflorum); test: Test C preemergence; format: in vivo; details: for Plant response rating, Ryegrass, Italian: scale 0 to 100, 0 no effect, 100 complete control
Method in brief: as §1

[8] = tested on: pigweed (Amaranthus retroflexus); test: Test C preemergence; format: in vivo; details: for Plant response rating, Pigweed: scale 0 to 100, 0 no effect, 100 complete control
Method in brief: as §1

soybean (Glycine max) = test: Test C preemergence; format: in vivo; details: for Plant response rating, Soybean: scale 0 to 100, 0 no effect, 100 complete control
Method in brief: as §1

[9] = tested on: nutsedge, yellow (yellow nutsedge, Cyperus esculentus); test: Test C preemergence; format: in vivo; details: for Plant response rating, Nutsedge, Yellow: scale 0 to 100, 0 no effect, 100 complete control
Method in brief: as §1

[10] = tested on: foxtail, giant (giant foxtail, Setaria faberii); test: Test C preemergence; format: in vivo; details: for Plant response rating, Foxtail, Giant: scale 0 to 100, 0 no effect, 100 complete control
Method in brief: as §1

[11] = tested on: morningglory (Ipomoea coccinea); test: Test C preemergence; format: in vivo; details: for Plant response rating, Morningglory: scale 0 to 100, 0 no effect, 100 complete control
Method in brief: as §1

[12] = tested on: oilseed rape (Brassica napus); test: Test C preemergence; format: in vivo; details: for Plant response rating, Oilseed Rape: scale 0 to 100, 0 no effect, 100 complete control
Method in brief: as §1

[13] = tested on: wheat (winter wheat, Triticum aestivum); test: Test C preemergence; format: in vivo; details: for Plant response rating, Wheat: scale 0 to 100, 0 no effect, 100 complete control
Method in brief: as §1

[14] = tested on: barnyardgrass (Echinochloa crus-galli); test: Test C preemergence; format: in vivo; details: for Plant response rating, Barnyardgrass: scale 0 to 100, 0 no effect, 100 complete control
Method in brief: as §1

[15] = tested on: crabgrass, large (large crabgrass, Digitaria sanguinalis); test: Test C preemergence; format: in vivo; details: for Plant response rating, Crabgrass, Large: scale 0 to 100, 0 no effect, 100 complete control
Method in brief: as §1

[16] = 31 g ai/ha, 0 is no effect, 100 is complete control

Cc1cc([C@H]2CN(C)C(=O)[C@@H]2C(=O)Nc2cccc(F)c2F)no1 [Compound 1237] showed a melting point of 97 to 101 °C.

For CN1CC(c2cc(F)cc(F)c2)C(C(=O)Nc2ccc(F)c(F)c2F)C1=O (stereo not drawn) [Compound 646], the “Plant response rating (scale of 0 to 100), Johnsongrass” value [1, 16] was 35, the “Plant response rating, Johnsongrass” value ([1]; 62 g ai/ha) was 40 and the “Plant response rating, Johnsongrass” value ([1]; 125 g ai/ha) was 85. For the same compound, the “Plant response rating, Johnsongrass” value ([1]; 250 g ai/ha) was 90, the “Plant response rating (scale of 0 to 100), Velvetleaf” value [2, 16] was 15 and the “Plant response rating, Velvetleaf” value ([2]; 62 g ai/ha) was 25. The “Plant response rating, Velvetleaf” value ([2]; 125 g ai/ha) was 55, the “Plant response rating, Velvetleaf” value ([2]; 250 g ai/ha) was 60 and the “Plant response rating (scale of 0 to 100), Lambsquarters” value [3, 16] was 40. The “Plant response rating, Lambsquarters” value ([3]; 62 g ai/ha) was 60, the “Plant response rating, Lambsquarters” value ([3]; 125 g ai/ha) was 75 and the “Plant response rating, Lambsquarters” value ([3]; 250 g ai/ha) was 80. For the same compound, the “Plant response rating (scale of 0 to 100), Corn” value (corn (Zea mays); [16]) was 35, the “Plant response rating, Corn” value (corn (Zea mays); 62 g ai/ha) was 45 and the “Plant response rating, Corn” value (corn (Zea mays); 125 g ai/ha) was 65. For the same compound, the “Plant response rating, Corn” value (corn (Zea mays); 250 g ai/ha) was 75, the “Plant response rating (scale of 0 to 100), Blackgrass” value [4, 16] was 80 and the “Plant response rating, Blackgrass” value ([4]; 62 g ai/ha) was 80. The “Plant response rating, Blackgrass” value ([4]; 125 g ai/ha) was 85, the “Plant response rating, Blackgrass” value ([4]; 250 g ai/ha) was 98 and the “Plant response rating (scale of 0 to 100), Galium” value [5, 16] was 90. For the same compound, the “Plant response rating, Galium” value ([5]; 62 g ai/ha) was 90, the “Plant response rating, Galium” value ([5]; 125 g ai/ha) was 90 and the “Plant response rating, Galium” value ([5]; 250 g ai/ha) was 100. The “Plant response rating (scale of 0 to 100), Ragweed” value [6, 16] was 20, the “Plant response rating, Ragweed” value ([6]; 62 g ai/ha) was 30 and the “Plant response rating, Ragweed” value ([6]; 125 g ai/ha) was 60. For the same compound, the “Plant response rating, Ragweed” value ([6]; 250 g ai/ha) was 70, the “Plant response rating (scale of 0 to 100), Ryegrass, Italian” value [7, 16] was 30 and the “Plant response rating, Ryegrass, Italian” value ([7]; 62 g ai/ha) was 20. The “Plant response rating, Ryegrass, Italian” value ([7]; 125 g ai/ha) was 80, the “Plant response rating, Ryegrass, Italian” value ([7]; 250 g ai/ha) was 90 and the “Plant response rating (scale of 0 to 100), Pigweed” value [8, 16] was 0. The “Plant response rating, Pigweed” value ([8]; 62 g ai/ha) was 10, the “Plant response rating, Pigweed” value ([8]; 125 g ai/ha) was 65 and the “Plant response rating, Pigweed” value ([8]; 250 g ai/ha) was 75. The “Plant response rating (scale of 0 to 100), Soybean” value (soybean (Glycine max); [16]) was 0, the “Plant response rating, Soybean” value (soybean (Glycine max); 62 g ai/ha) was 0 and the “Plant response rating, Soybean” value (soybean (Glycine max); 125 g ai/ha) was 10. The “Plant response rating, Soybean” value (soybean (Glycine max); 250 g ai/ha) was 0, the “Plant response rating (scale of 0 to 100), Nutsedge, Yellow” value [9, 16] was 0 and the “Plant response rating, Nutsedge, Yellow” value ([9]; 62 g ai/ha) was 0. For the same compound, the “Plant response rating, Nutsedge, Yellow” value ([9]; 125 g ai/ha) was 0, the “Plant response rating, Nutsedge, Yellow” value ([9]; 250 g ai/ha) was 35 and the “Plant response rating (scale of 0 to 100), Foxtail, Giant” value [10, 16] was 95. The “Plant response rating, Foxtail, Giant” value ([10]; 62 g ai/ha) was 95, the “Plant response rating, Foxtail, Giant” value ([10]; 125 g ai/ha) was 95 and the “Plant response rating, Foxtail, Giant” value ([10]; 250 g ai/ha) was 98. For the same compound, the “Plant response rating (scale of 0 to 100), Morningglory” value [11, 16] was 0, the “Plant response rating, Morningglory” value ([11]; 62 g ai/ha) was 0 and the “Plant response rating, Morningglory” value ([11]; 125 g ai/ha) was 0. For the same compound, the “Plant response rating, Morningglory” value ([11]; 250 g ai/ha) was 10, the “Plant response rating (scale of 0 to 100), Oilseed Rape” value [12, 16] was 15 and the “Plant response rating, Oilseed Rape” value ([12]; 62 g ai/ha) was 80. The “Plant response rating, Oilseed Rape” value ([12]; 125 g ai/ha) was 85, the “Plant response rating, Oilseed Rape” value ([12]; 250 g ai/ha) was 90 and the “Plant response rating (scale of 0 to 100), Wheat” value [13, 16] was 35. For the same compound, the “Plant response rating, Wheat” value ([13]; 62 g ai/ha) was 80, the “Plant response rating, Wheat” value ([13]; 125 g ai/ha) was 85 and the “Plant response rating, Wheat” value ([13]; 250 g ai/ha) was 90. For the same compound, the “Plant response rating (scale of 0 to 100), Barnyardgrass” value [14, 16] was 90, the “Plant response rating, Barnyardgrass” value ([14]; 62 g ai/ha) was 95 and the “Plant response rating, Barnyardgrass” value ([14]; 125 g ai/ha) was 98. For the same compound, the “Plant response rating, Barnyardgrass” value ([14]; 250 g ai/ha) was 98, the “Plant response rating (scale of 0 to 100), Crabgrass, Large” value [15, 16] was 95 and the “Plant response rating, Crabgrass, Large” value ([15]; 62 g ai/ha) was 95. The “Plant response rating, Crabgrass, Large” value ([15]; 125 g ai/ha) was 98 and the “Plant response rating, Crabgrass, Large” value ([15]; 250 g ai/ha) was 100.
